In PubChem BioAssay (NCI):
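These data come from cells grown in 96-well plates and exposed to compound for 48 hours at five concentrations. GI50 is the concentration that inhibits growth by half. At the TGI there is no net growth.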

Assays:
Assay in all cases: inhibition of tumour cell growth, NCI panel, 48 h
RXF 393 renal = test system: RXF 393 renal
KM12 colon = test system: KM12 colon
OVCAR-5 ovarian = test system: OVCAR-5 ovarian
SK-MEL-28 melanoma = test system: SK-MEL-28 melanoma
NCI-H23 lung = test system: NCI-H23 lung
M14 melanoma = test system: M14 melanoma
HOP-62 NSCLC = test system: HOP-62 NSCLC
SK-MEL-2 melanoma = test system: SK-MEL-2 melanoma
NCI-H522 lung = test system: NCI-H522 lung
DU-145 prostate = test system: DU-145 prostate

Compound `C=Cc1cncc(C#N)c1CCc1c(C#N)cncc1C=C` has a GI50 (RXF 393 renal) of over 10 µM, a TGI (RXF 393 renal) of over 100 µM and a GI50 (KM12 colon) of over 100 µM. For the same compound, the TGI (KM12 colon) was over 100 µM, the GI50 (OVCAR-5 ovarian) was over 100 µM and the TGI (OVCAR-5 ovarian) was over 100 µM. For the same compound, the TGI (SK-MEL-28 melanoma) was over 10 µM, the GI50 (NCI-H23 lung) was over 100 µM and the TGI (NCI-H23 lung) was over 100 µM. It also gave a GI50 (M14 melanoma) of over 100 µM, a TGI (M14 melanoma) of over 100 µM and a GI50 (HOP-62 NSCLC) of over 100 µM. It also gave a TGI (HOP-62 NSCLC) of over 100 µM, a GI50 (SK-MEL-2 melanoma) of over 100 µM and a TGI (SK-MEL-2 melanoma) of over 100 µM. For the same compound, the GI50 (NCI-H522 lung) was over 100 µM and the TGI (NCI-H522 lung) was over 100 µM.
With `COc1ccc(/C=C/c2cc(OC)c(OC)c(OC)c2)cc1` the TGI (RXF 393 renal) was 2.62 µM, the TGI (KM12 colon) was over 100 µM and the TGI (OVCAR-5 ovarian) was over 100 µM. The TGI (SK-MEL-28 melanoma) was 96.8 µM, the TGI (NCI-H23 lung) was over 81.5 µM and the TGI (M14 melanoma) was over 100 µM. It also gave a TGI (HOP-62 NSCLC) of 60.1 µM, a TGI (SK-MEL-2 melanoma) of 52.8 µM and a GI50 (NCI-H522 lung) of 14.1 µM. For the same compound, the TGI (NCI-H522 lung) was 40.9 µM.
Compound `CC1=NN(C(=O)c2ccccc2O)C(=O)/C1=C/c1ccc(O)cc1` has a TGI (KM12 colon) of over 100 µM, a TGI (OVCAR-5 ovarian) of over 100 µM and a TGI (SK-MEL-28 melanoma) of over 100 µM. It also gave a TGI (NCI-H23 lung) of 19.9 µM, a TGI (M14 melanoma) of 22.4 µM and a TGI (DU-145 prostate) of over 100 µM. The TGI (HOP-62 NSCLC) was over 100 µM and the TGI (NCI-H522 lung) was 17.4 µM.
`Cc1nc(Nc2ccccc2)sc1C(=O)CC(=O)C(=O)Nc1c(C(C)C)cccc1C(C)C` gave a TGI (RXF 393 renal) of over 100 µM, a TGI (KM12 colon) of over 100 µM and a TGI (OVCAR-5 ovarian) of over 100 µM. For the same compound, the TGI (SK-MEL-28 melanoma) was over 100 µM, the TGI (NCI-H23 lung) was over 100 µM and the TGI (M14 melanoma) was over 100 µM. For the same compound, the TGI (HOP-62 NSCLC) was over 100 µM, the TGI (SK-MEL-2 melanoma) was over 100 µM and the TGI (NCI-H522 lung) was over 100 µM.
With `COc1cc(OC)c(C/C=C/c2ccccc2)cc1O` the TGI (KM12 colon) was 31.5 µM, the TGI (OVCAR-5 ovarian) was 69.9 µM and the TGI (SK-MEL-28 melanoma) was 30.4 µM. It also gave a TGI (NCI-H23 lung) of 35.2 µM, a TGI (M14 melanoma) of 38 µM and a TGI (DU-145 prostate) of 31.5 µM. The TGI (SK-MEL-2 melanoma) was 41.8 µM and the TGI (NCI-H522 lung) was 27.2 µM.
`CCCCCCCCCCCCCCCC(=O)OCC1OC(n2cc(F)c(=O)[nH]c2=O)C(N)C(O)C1O` (stereo not drawn) gave a TGI (KM12 colon) of 33.3 µM, a TGI (OVCAR-5 ovarian) of 58.8 µM and a TGI (SK-MEL-28 melanoma) of 31.1 µM. For the same compound, the TGI (NCI-H23 lung) was 39.3 µM, the TGI (M14 melanoma) was 32.8 µM and the TGI (HOP-62 NSCLC) was 37.4 µM. The TGI (NCI-H522 lung) was 31.7 µM.
`O=C1C(c2ccccc2)=C(O)c2cccc3cccc1c23` gave a TGI (RXF 393 renal) of over 100 µM, a TGI (KM12 colon) of over 100 µM and a TGI (OVCAR-5 ovarian) of over 100 µM. The TGI (SK-MEL-28 melanoma) was over 100 µM, the TGI (NCI-H23 lung) was over 100 µM and the TGI (M14 melanoma) was over 100 µM. It also gave a TGI (SK-MEL-2 melanoma) of over 100 µM and a TGI (NCI-H522 lung) of over 100 µM.
In the case of `CCOC(=O)/C(C1=NCCN1)=C(\O)c1ccccc1`, the TGI (RXF 393 renal) is reported as over 100 µM, the TGI (KM12 colon) is reported as over 100 µM and the TGI (OVCAR-5 ovarian) is reported as over 100 µM. It also gave a TGI (SK-MEL-28 melanoma) of over 100 µM, a TGI (NCI-H23 lung) of over 100 µM and a TGI (M14 melanoma) of over 100 µM. It also gave a TGI (HOP-62 NSCLC) of over 100 µM, a TGI (SK-MEL-2 melanoma) of over 100 µM and a TGI (NCI-H522 lung) of over 100 µM.
In the case of `COc1cc2c[n+](C)c3c4cc(OC)c(OC(C)C)cc4ccc3c2cc1OC`, the TGI (RXF 393 renal) is reported as over 100 µM, the TGI (KM12 colon) is reported as over 100 µM and the TGI (OVCAR-5 ovarian) is reported as over 100 µM. For the same compound, the TGI (SK-MEL-28 melanoma) was over 100 µM, the TGI (NCI-H23 lung) was over 100 µM and the TGI (M14 melanoma) was over 100 µM. For the same compound, the TGI (HOP-62 NSCLC) was over 100 µM, the TGI (SK-MEL-2 melanoma) was 40 µM and the TGI (NCI-H522 lung) was 69.3 µM.
Work on `Cc1c(Cl)cccc1C(=O)Nc1nc2c(s1)CN(C(=O)c1ccc(C(F)(F)F)cc1)CC2` yielded a GI50 (KM12 colon) of 0.113 µM, a TGI (KM12 colon) of over 50 µM and a GI50 (OVCAR-5 ovarian) of 0.311 µM. For the same compound, the TGI (OVCAR-5 ovarian) was over 50 µM, the GI50 (SK-MEL-28 melanoma) was 4.11 µM and the TGI (SK-MEL-28 melanoma) was over 50 µM. The GI50 (NCI-H23 lung) was 0.186 µM, the TGI (NCI-H23 lung) was over 50 µM and the GI50 (M14 melanoma) was 0.0483 µM. For the same compound, the TGI (M14 melanoma) was 38.4 µM, the GI50 (DU-145 prostate) was 0.194 µM and the TGI (DU-145 prostate) was over 50 µM. It also gave a GI50 (HOP-62 NSCLC) of 0.173 µM, a TGI (HOP-62 NSCLC) of over 50 µM and a GI50 (SK-MEL-2 melanoma) of 0.202 µM. The TGI (SK-MEL-2 melanoma) was over 50 µM, the GI50 (NCI-H522 lung) was 0.0252 µM and the TGI (NCI-H522 lung) was 2.33 µM.
